Assay results: patent US8680065B2, “Oligonucleotides of human endogenous retrovirus 9 (ERV-9) long terminal repeat (LTR) and methods of use” (The United States of America, as represented by the …, priority 2008, dated 2014)

How the values were obtained:
[1] = test system: HT1080, MDA-231, K562, LNcaP, HepG2 and MCF-7 cancer cell lines; test: Cancer cell proliferation, Example 1, summary over six cancer cell lines; assay type: cell-based, human; conditions: for proliferation relative to GFP control oligonucleotide: each of six cancer cell lines, 10, 20 or 30 μg/ml, 48 hours; for proliferation compared with Bcl-2, telomerase and MDM2-specific antisense oligonucleotides: six cancer cell lines, in most instances
Protocol: (§1) To test the effect of the sense and antisense ERV-9 U3 oligonucleotides on proliferation of cancer cells, six different cancer cell lines were selected for transfection studies: HT1080, fibrosarcoma cells (FIG. 1); MDA-231, breast cancer cells (FIG. 2); K562, myelogenous leukemia cells (FIG. 3); LNcaP, prostate cancer cells (FIG. 4); HepG2, hepatocellular carcinoma cells (FIG. 5); and MCF-7, breast cancer cells (FIG. 6). Cells (4×10^4) were treated with ERV-9 U3 sense or antisense oligonucleotide formulated in LIPOFECTAMINE™ at an oligonucleotide concentration of 10, 20 or 30 μg/ml for 48 hours. Green fluorescent protein (GFP) sense oligonucleotide ([…]; SEQ ID NO: 3) was used as a control to measure the non-specific cytotoxicity of phosphorothioate-based oligonucleotides. Antisense oligonucleotides specific for Bcl-2 (G3139; TCTCCCAGCGTGCGCCAT; SEQ ID NO: 4), telomerase (GRN163; TAGGGTTAGACAA; SEQ ID NO: 5), and MDM2 ([…]; SEQ ID NO: 6) were also evaluated. […] After 48 hours of oligonucleotide treatment, cell proliferation was assessed by direct cell counting. Cell proliferation levels were expressed relative to cells transfected with 10 μg/ml GFP control oligonucleotide.

[2] = test system: HT1080, MDA-231, K562, LNcaP, HepG2 and MCF-7 cancer cell lines; test: Cancer cell proliferation, Example 2, summary over six cancer cell lines, alone or with VP16; assay type: cell-based, human; conditions: for proliferation relative to GFP control oligonucleotide: each of six cancer cell lines, oligonucleotide 15 μg/ml, 48 hours; for proliferation compared with Bcl-2, telomerase and MDM2-specific antisense oligonucleotides: six cancer cell lines, alone or with VP16, in most instances
Protocol: (§2) To test the effect of treating cancer cells with the combination of ERV-9 U3 oligonucleotide and VP16, six different cancer cell lines were analyzed: HT1080, (FIG. 7); MDA-231 (FIG. 8); K562 (FIG. 9); LNcaP (FIG. 10); HepG2 (FIG. 11); and MCF-7 (FIG. 12). Cells (4×10^4) were treated with 15 μg/ml ERV-9 U3 sense (SEQ ID NO: 1) or antisense (SEQ ID NO: 2) oligonucleotide alone or in combination with VP16 at a concentration of 30 ng/ml or 50 ng/ml. After 48 hours, cell proliferation was assessed by direct cell counting. Cell proliferation levels were expressed relative to GFP oligonucleotide control in the absence of VP16.

[3] = test system: K562 cells (a myelogenous leukemia cell line); test: Cancer cell proliferation, oligonucleotide in LIPOFECTAMINE, 48 hours, direct cell counting; assay type: cell-based, human; conditions: P<0.05
Protocol: FIG. 3 is a graph showing the effect of sense and antisense ERV-9 U3 oligonucleotides (SEQ ID NOs: 1 and 2, respectively) on proliferation of K562 cells (a myelogenous leukemia cell line). Cells (4×10^4) were treated with ERV-9 U3 sense or antisense oligonucleotide formulated in LIPOFECTAMINE™ at the concentrations shown for 48 hours.
as §1

K562 cells = test: Cancer cell proliferation, oligonucleotide in combination with VP16, 48 hours; assay type: cell-based, human; conditions: oligonucleotide 15 μg/ml with VP16 30 ng/ml and 50 ng/ml, P<0.05
Protocol: FIG. 9 is a graph showing proliferation of K562 cells treated with ERV-9 U3 sense or antisense oligonucleotide (SEQ ID NOs: 1 and 2, respectively), in combination with VP16. Cells (4×10^4) were treated with oligonucleotide (15 μg/ml) alone or in combination with the concentrations of VP16 shown for 48 hours.
as §2

human primary monocytes = test: Proliferation of normal human primary cells, 48 hours; assay type: cell-based; conditions: 20 μg/ml, P>0.05
Protocol: FIG. 15 is a graph showing the effect of ERV-9 U3 sense and antisense oligonucleotides (SEQ ID NOs: 1 and 2, respectively) on human primary monocytes. Cells (4×10^4) were transfected with ERV-9 U3 sense or antisense oligonucleotide formulated in LIPOFECTAMINE™ at a concentration of 20 μg/ml for 48 hours.
To determine whether the inhibitory effect of ERV-9 U3 oligonucleotides is specific to cancer cells, human primary keratinocytes (FIG. 13), lymphocytes (FIG. 14), or monocytes (FIG. 15) were treated with ERV-9 U3 sense or antisense oligonucleotide and cell proliferation was evaluated. Cells (4×10^4) were transfected with ERV-9 U3 sense or antisense oligonucleotide (SEQ ID NOs: 1 and 2, respectively) formulated in LIPOFECTAMINE™ at a concentration of 20 μg/ml. GFP oligonucleotide was used as non-specific phosphorothioate oligonucleotide control. After 48 hours, cell proliferation was assessed by direct cell counting. Cell proliferation levels were expressed relative to GFP control.

[4] = test system: HT1080 cells (a fibrosarcoma cell line); test: Cancer cell proliferation, oligonucleotide in LIPOFECTAMINE, 48 hours, direct cell counting; assay type: cell-based, human; conditions: P<0.05
Protocol: FIG. 1 is a graph showing the effect of sense and antisense ERV-9 U3 oligonucleotides (SEQ ID NOs: 1 and 2, respectively) on proliferation of HT1080 cells (a fibrosarcoma cell line). Cells (4×10^4) were treated with ERV-9 U3 sense or antisense oligonucleotide formulated in LIPOFECTAMINE™ at the concentrations shown for 48 hours. Green fluorescent protein (GFP) sense oligonucleotide (SEQ ID NO: 3) was used as a control to measure the non-specific cytotoxicity of phosphorothioate-based oligonucleotides. Antisense oligonucleotides specific for Bcl-2 (G3139; SEQ ID NO: 4), telomerase (GRN163; SEQ ID NO: 5) and MDM2 (SEQ ID NO: 6) were also evaluated. Cell proliferation levels were expressed relative to cells transfected with 10 μg/ml GFP oligonucleotide.
as §1

[5] = oligonucleotide 10 μg/ml and 20 μg/ml
[6] = oligonucleotide 20 μg/ml and 30 μg/ml

Substance	proliferation relative to GFP control oligonucleotide [1]	proliferation compared with Bcl-2, telomerase and MDM2-specific antisense oligonucleotides [1]	proliferation relative to GFP control oligonucleotide [2]	proliferation compared with Bcl-2, telomerase and MDM2-specific antisense oligonucleotides [2]	cell proliferation relative to GFP oligonucleotide [3, 5]	cell proliferation relative to GFP oligonucleotide ([3]; oligonucleotide 30 μg/ml)	cell proliferation relative to GFP oligonucleotide control (K562 cells)	cell proliferation relative to control GFP oligonucleotide (human primary monocytes)	cell proliferation relative to GFP oligonucleotide ([4]; oligonucleotide 10 μg/ml)	cell proliferation relative to GFP oligonucleotide [4, 6]	tumor cell proliferation, antisense relative to sense oligonucleotide ([1]; tumor cells)
U3S: ERV-9 LTR U3 sense oligonucleotide CTCAAGGTTTGTAAACACACCAATCAG, phosphorothioate internucleoside linkages at each position (all phosphorothioate, sugars by position and methylation of C not given here) [Oligo U3S]	resulted in a significant decrease in proliferation of each cancer cell line tested, relative to GFP control oligonucleotide	inhibited proliferation to a greater extent than the Bcl-2, telomerase and MDM2-specific antisense oligonucleotides	resulted in a significant decrease in proliferation of each cancer cell line tested, relative to GFP control oligonucleotide	inhibited proliferation to a greater extent than the Bcl-2, telomerase and MDM2-specific antisense oligonucleotides, either alone or in combination with VP16	inhibited cell proliferation better than GFP control oligonucleotide	inhibited proliferation better than GFP control and G3139, GRN163 and MDM2 antisense oligonucleotides	inhibited cell proliferation better than GFP control and G3139, GRN163 and MDM2 antisense oligonucleotides	did not inhibit cell proliferation relative to control GFP oligonucleotide	inhibited cell proliferation better than GFP oligonucleotide	inhibited cell proliferation better than GFP control and G3139, GRN163 and MDM2 antisense oligonucleotides	
U3AS: ERV-9 LTR U3 antisense oligonucleotide CTGATTGGTGTGTTTACAAACCTTGAG, phosphorothioate internucleoside linkages at each position (all phosphorothioate, sugars by position and methylation of C not given here) [Oligo U3AS]	resulted in a significant decrease in proliferation of each cancer cell line tested, relative to GFP control oligonucleotide	inhibited proliferation to a greater extent than the Bcl-2, telomerase and MDM2-specific antisense oligonucleotides	resulted in a significant decrease in proliferation of each cancer cell line tested, relative to GFP control oligonucleotide	inhibited proliferation to a greater extent than the Bcl-2, telomerase and MDM2-specific antisense oligonucleotides, either alone or in combination with VP16	inhibited cell proliferation better than GFP control oligonucleotide	inhibited proliferation better than GFP control and G3139, GRN163 and MDM2 antisense oligonucleotides	inhibited cell proliferation better than GFP control and G3139, GRN163 and MDM2 antisense oligonucleotides	did not inhibit cell proliferation relative to control GFP oligonucleotide	inhibited cell proliferation better than GFP oligonucleotide	inhibited cell proliferation better than GFP control and G3139, GRN163 and MDM2 antisense oligonucleotides	more potently inhibited tumor cell proliferation (relative to the sense oligonucleotide)
